2 compounds from ChEMBL document CHEMBL1135376, “Synthesis of an immunoconjugate of camptothecin” (Bioorg Med Chem Lett, 2002) can be followed below.

pIC50: −log10 of the molar value.

Series [1] is described as follows: Compound was evaluated for its stability and enzymatic cleavage of dipeptide linker at pH5, 37 degree C. As to conditions: pH 5. The series is classed as ADME.
The nature of series [2]: Compound was evaluated for its stability and enzymatic cleavage of dipeptide linker at pH 7, 37 degree C.; 5-6 h. The class given is ADME.
Series [3] in a line: Compound was evaluated for its stability and enzymatic cleavage of dipeptide linker at pH5, 37 degree C.; 5-6 h. The class given is ADME. The following applies: pH 5.
Series [4] deals with L2987. In words: Compound was evaluated for antigen specific activity in vitro L2987 cell line. As to conditions: Homo sapiens. The class given is functional, cell-based.

Regarding `CC[C@]1(OC(=O)OCc2ccc(NC(=O)[C@H](CCCCN)NC(=O)[C@H](Cc3ccccc3)NC(=O)CCCCCN3C(=O)CC(SCCO)C3=O)cc2)C(=O)OCc2c1cc1n(c2=O)Cc2cc3ccccc3nc2-1` (some centres undefined), the half-life (as a rule, the time in which the quantity being followed falls by half) is less than 2 min in series [1], 6 h in series [2] and 6 h in series [3].
For the compound `CC[C@@]1(O)C(=O)OCc2c1cc1n(c2=O)Cc2cc3ccccc3nc2-1` [CAMPTOTHECIN], in series [4], the pIC50 (usually −log10 of the IC50, conventionally taken in molar units) is 6.40.
